PMC5834903, “Phytochemical profiling and in vitro screening for anticholinesterase, antioxidant, antiglucosidase and neuroprotective effect of three traditional medicinal plants for Alzheimer’s Disease and Diabetes Mellitus dual therapy” (BMC Complementary and Alternative Medicine, 2018)
In brackets after ≈: the same amount, converted by molar mass.

Target: T1, β–glucosidase
T1 construct: gene emulsin; sweet almond is only the usual commercial preparation
Assay: p-nitrophenol release, […] nm
Type: biochemical
Conditions: p-nitrophenyl β-D-glucopyranoside […], phosphate buffer pH […] °C

O=C1O[C@H](CO)[C@@H](O)[C@H](O)[C@H]1O [D-Glucono-δ-lactone]
IC50 Values (μg/mL) / β-Glc: 10.68 ± 0.005 µg/mL (≈ 60 µM)
